For assay [1], the system named is P.aeruginosa ATCC27853. Description: Antibiotic activity: minimum inhibitory concentration (MIC). The assay is classed as cell-based. Conditions: strain ATCC27853. The procedure: (§1) Antibiotic activities were determined using measurement of minimum inhibitory concentrations by standard procedures referring to the Manual of Commercial Methods in Clinical Microbiology. Ed. Allan L. Truant. ASM Press (2002) and are reported as concentrations (μM).

Assay [2] concerns E.coli ATCC25922. The assay is described as above. The format is cell-based. Conditions: Escherichia coli; strain ATCC25922. The procedure: as §1

≈ marks a conversion by molar mass, not a printed value.

Compound `NCC[C@H](O)C(=O)N[C@@H]1C[C@H](N)[C@@H](O[C@H]2O[C@H](CN)[C@@H](O)[C@H](O)[C@H]2O)[C@H](O)[C@H]1O[C@H]1O[C@H](CO)[C@@H](O)[C@H](N)[C@H]1O` [Amikacin, reference compound] displayed an MIC in assay [1] (Pseudomonas aeruginosa) of 7.5 µM (≈ 4.39 µg/mL).

`CCCCCCCCCCCCCCCC(=O)OCC1OC(OC2C(N)CC(N)C(OC3OC(CN)C(O)CC3N)C2O)C(O)C(N)C1O` (stereo not drawn) [Compound 25, Tobramycin 6″-Palmitoyl Ester] came in with an MIC in assay [1] of 16 µM (≈ 11.3 µg/mL). `NCC1OC(OC2C(N)CC(N)C(OC3OC4COC(=O)CCCCCCCCCCC(=O)OC4C(N)C3O)C2O)C(N)CC1O` (stereo not drawn) [Compound 30] came in with an MIC in assay [1] (Pseudomonas aeruginosa) of 64 µM (≈ 42.4 µg/mL). As for `CCCCCCC(=O)OCC1OC(OC2C(N)CC(N)C(OC3OC(CN)C(OC(=O)CCCCCC)CC3N)C2O)C(OC(=O)CCCCCC)C(N)C1OC(=O)CCCCCC` (stereo not drawn) [Compound 31], the MIC in assay [1] (Pseudomonas aeruginosa) worked out at 32 µM (≈ 29.3 µg/mL). `NC1CC(O)C(CNC(=O)C[C@H](N)C(=O)O)OC1OC1C(N)CC(N)C(OC2OC(CO)C(O)C(N)C2O)C1O` (stereo partly drawn) [Compound 32]: in assay [1] (Pseudomonas aeruginosa), the MIC was over 64 µM. Take `NC1CC(O)C(CNC(=O)[C@@H](N)CC(=O)O)OC1OC1C(N)CC(N)C(OC2OC(CO)C(O)C(N)C2O)C1O` (stereo partly drawn) [Compound 33]: the minimum inhibitory concentration (MIC) in assay [2] is over 32 µM; in assay [1] (Pseudomonas aeruginosa) it was over 64 µM. As to `NC[C@H]1O[C@H](O[C@H]2[C@H](O)[C@@H](O[C@H]3O[C@H](CO)[C@@H](O)[C@H](N)[C@H]3O)[C@H](N)C[C@@H]2N)[C@H](N)C[C@@H]1O` [Tobramycin, reference compound], the MIC in assay [1] (Pseudomonas aeruginosa) came to 2 µM (≈ 0.935 µg/mL). For the compound Neomycin [reference compound], the MIC in assay [1] stood at 30 µM.

For orientation: MIC means the lowest concentration found to suppress growth. High values mean weaker potency, low ones greater potency.

These data come from patent publication US20060128608A1, “Novel chemical compounds and their use” (priority 2002, published 2006).
